Reference: US11872202B2, “Pleuromutilin cinnamic acid ester compounds with activities against antibiotic-resistant infections” (SHAANXI UNIVERSITY OF SCIENCE AND TECHNOLOGY, priority 2021, dated 2024)
≈ marks a conversion by molar mass, not a printed value. Read-outs that look alike come from different tables or passages of the source.

How the values were obtained:
Test in all cases: MIC, micro-broth dilution method
Format in all cases: cell-based
[1] = tested on: Acinetobacter baumannii ATCC19606
Method: (§1) The minimum inhibitory concentration (MIC) of pleuromutilin cinnamate easters and their starting materials was tested by a micro-broth dilution method, with retamoline, vornimulin and tiamulin as positive controls.
(§2) The experimental strains included Gram-positive bacteria: Methicillin-sensitive Staphylococcus epidermidis ATCC12228, Staphylococcus aureus ATCC29213 and ATCC25923, and Methicillin-resistant Staphylococcus aureus ATCC33591; Gram-negative bacteria: Acinetobacter baumannii ATCC19606 and E. coli Bacillus ATCC25922 (the strains used were from the American type culture collection (ATCC)).

[2] = tested on: Escherichia coli ATCC25922
Method: as §1, §2

[3] = tested on: Methicillin-resistant Staphylococcus aureus ATCC33591
Method: as §1, §2

[4] = tested on: Methicillin-sensitive Staphylococcus epidermidis ATCC12228; conditions: for inhibitory effect compared with the three tested positive controls: methicillin-sensitive Staphylococcus epidermidis, statement in words from Table 1
Method: as §1, §2

[5] = tested on: Staphylococcus aureus ATCC25923
Method: as §1, §2

[6] = tested on: Staphylococcus aureus ATCC29213
Method: as §1, §2

[7] = Acinetobacter baumannii ATCC19606, 37° C., 20-22 h, read-out: Minimum inhibitory concentration
[8] = Escherichia coli ATCC25922, 37° C., 20-22 h, read-out: Minimum inhibitory concentration
[9] = Methicillin-resistant Staphylococcus aureus ATCC33591, 37° C., 20-22 h, read-out: Minimum inhibitory concentration
[10] = Methicillin-sensitive Staphylococcus epidermidis ATCC12228, 37° C., 20-22 h, read-out: Minimum inhibitory concentration
[11] = Staphylococcus aureus ATCC25923, 37° C., 20-22 h, read-out: Minimum inhibitory concentration
[12] = Staphylococcus aureus ATCC29213, 37° C., 20-22 h, read-out: Minimum inhibitory concentration
[13] = Acinetobacter baumannii, ATCC19606, read-out: Minimum inhibitory concentration
[14] = Escherichia coli, ATCC25922, read-out: Minimum inhibitory concentration
[15] = Staphylococcus aureus, ATCC33591, read-out: Minimum inhibitory concentration
[16] = Staphylococcus epidermidis, ATCC12228, read-out: Minimum inhibitory concentration
[17] = Staphylococcus aureus, ATCC25923, read-out: Minimum inhibitory concentration
[18] = Staphylococcus aureus, ATCC29213, read-out: Minimum inhibitory concentration

C=C[C@]1(C)C[C@@H](OC(=O)COC(=O)/C=C/c2ccccc2C(F)(F)F)[C@]2(C)[C@H](C)CC[C@]3(CCC(=O)[C@H]32)[C@@H](C)[C@@H]1O [Compound 21]
MIC [1, 7]: > 256 µg/mL
MIC [2, 8]: > 256 µg/mL
MIC [3, 9]: 128 µg/mL (≈ 222 µM)
MIC [4, 10]: 64 µg/mL (≈ 111 µM)
MIC [5, 11]: 32 µg/mL (≈ 55.5 µM)
MIC [6, 12]: 64 µg/mL (≈ 111 µM)

C=C[C@]1(C)C[C@@H](OC(=O)COC(=O)/C=C/c2ccc(OC)c(OC)c2)[C@]2(C)[C@H](C)CC[C@]3(CCC(=O)[C@H]32)[C@@H](C)[C@@H]1O [Compound 7, (E)-2-(((3aR,4R,5R,8S,9R,12R)-8-hydroxy-4,7,9,12-tetramethyl-3-oxo-7-vinyldecahydro-4,9a-propanocyclopenta[8]annulen-5-yl)oxy)-2-oxoethyl 3-(3,4-dimethoxyphenyl)acrylate]
MIC [1, 7]: > 256 µg/mL
MIC [2, 8]: 64 µg/mL (≈ 113 µM)
MIC [3, 9]: 32 µg/mL (≈ 56.3 µM)
MIC [4, 10]: 16 µg/mL (≈ 28.1 µM)
MIC [5, 11]: 4 µg/mL (≈ 7.03 µM)
MIC [6, 12]: 8 µg/mL (≈ 14.1 µM)

C=C[C@]1(C)C[C@@H](OC(=O)COC(=O)/C=C/c2cccc(C(F)(F)F)c2)[C@]2(C)[C@H](C)CC[C@]3(CCC(=O)[C@H]32)[C@@H](C)[C@@H]1O [Compound 16, (E)-2-(((3aR,4R,5R,8S,9R,12R)-8-hydroxy-4,7,9,12-tetramethyl-3-oxo-7-vinyldecahydro-4,9a-propanocyclopenta[8]annulen-5-yl)oxy)-2-oxoethyl 3-(3-(trifluoromethyl)phenyl)acrylate]
MIC [1, 7]: 128 µg/mL (≈ 222 µM)
MIC [2, 8]: 64 µg/mL (≈ 111 µM)
MIC [3, 9]: 256 µg/mL (≈ 444 µM)
MIC [4, 10]: 64 µg/mL (≈ 111 µM)
MIC [5, 11]: 32 µg/mL (≈ 55.5 µM)
MIC [6, 12]: 64 µg/mL (≈ 111 µM)

C=C[C@]1(C)C[C@@H](OC(=O)COC(=O)/C=C/c2cccc(Cl)c2)[C@]2(C)[C@H](C)CC[C@]3(CCC(=O)[C@H]32)[C@@H](C)[C@@H]1O [Compound 2, (E)-2-(((3aR,4R,5R,8S,9R,12R)-8-hydroxy-4,7,9,12-tetramethyl-3-oxo-7-vinyldecahydro-4,9a-propanocyclopenta[8]annulen-5-yl)oxy)-2-oxoethyl 3-(3-chlorophenyl)acrylate]
MIC [1, 7]: 128 µg/mL (≈ 236 µM)
MIC [2, 8]: 64 µg/mL (≈ 118 µM)
MIC [3, 9]: 32 µg/mL (≈ 58.9 µM)
MIC [4, 10]: 8 µg/mL (≈ 14.7 µM)
inhibitory effect compared with the three tested positive controls [4]: better than that of the positive controls
MIC [5, 11]: 16 µg/mL (≈ 29.5 µM)
MIC [6, 12]: 32 µg/mL (≈ 58.9 µM)

C=C[C@]1(C)C[C@@H](OC(=O)COC(=O)/C=C/c2ccc(C#N)cc2)[C@]2(C)[C@H](C)CC[C@]3(CCC(=O)[C@H]32)[C@@H](C)[C@@H]1O [Compound 6, (E)-2-(((3aR,4R,5R,8S,9R,12R)-8-hydroxy-4,7,9,12-tetramethyl-3-oxo-7-vinyldecahydro-4,9a-propanocyclopenta[8]annulen-5-yl)oxy)-2-oxoethyl 3-(4-cyanophenyl)acrylate]
MIC [1, 13]: > 256 µg/mL
MIC [2, 14]: > 256 µg/mL
MIC [3, 15]: 64 µg/mL (≈ 120 µM)
MIC [4, 16]: 64 µg/mL (≈ 120 µM)
MIC [5, 17]: 32 µg/mL (≈ 60 µM)
MIC [6, 18]: 64 µg/mL (≈ 120 µM)

C=C[C@]1(C)C[C@@H](OC(=O)COC(=O)/C=C/c2ccc(C(F)(F)F)cc2F)[C@]2(C)[C@H](C)CC[C@]3(CCC(=O)[C@H]32)[C@@H](C)[C@@H]1O [Compound 19, (E)-2-(((3aR,4R,5R,8S,9R,12R)-8-hydroxy-4,7,9,12-tetramethyl-3-oxo-7-vinyldecahydro-4,9a-propanocyclopenta[8]annulen-5-yl)oxy)-2-oxoethyl 3-(2-fluoro-4-(trifluoromethyl)phenyl)acrylate]
MIC [1, 7]: > 256 µg/mL
MIC [2, 8]: 128 µg/mL (≈ 215 µM)
MIC [3, 9]: 64 µg/mL (≈ 108 µM)
MIC [4, 10]: 16 µg/mL (≈ 26.9 µM)
MIC [5, 11]: 8 µg/mL (≈ 13.5 µM)
MIC [6, 12]: 16 µg/mL (≈ 26.9 µM)

C=C[C@]1(C)C[C@@H](OC(=O)COC(=O)/C=C/c2ccccc2)[C@]2(C)[C@H](C)CC[C@]3(CCC(=O)[C@H]32)[C@@H](C)[C@@H]1O [Compound 3, 2-(((3aR,4R,5R,8S,9R,12R)-8-hydroxy-4,7,9,12-tetramethyl-3-oxo-7-vinyldecahydro-4,9a-propanocyclopenta[8]annulen-5-yl)oxy)-2-oxoethyl cinnamate]
MIC [1, 7]: > 256 µg/mL
MIC [2, 8]: 128 µg/mL (≈ 252 µM)
MIC [3, 9]: 32 µg/mL (≈ 62.9 µM)
MIC [4, 10]: 16 µg/mL (≈ 31.5 µM)
MIC [5, 11]: 4 µg/mL (≈ 7.86 µM)
MIC [6, 12]: 16 µg/mL (≈ 31.5 µM)

C=C[C@]1(C)C[C@@H](OC(=O)CS[C@@H]2C[C@H]3CC[C@@H](C2)N3C)[C@]2(C)[C@H](C)CC[C@]3(CCC(=O)[C@H]32)[C@@H](C)[C@@H]1O [Retapamulin, reference compound]
MIC [1, 13]: 16 µg/mL (≈ 30.9 µM)
MIC [2, 14]: 32 µg/mL (≈ 61.8 µM)
MIC [3, 15]: 32 µg/mL (≈ 61.8 µM)
MIC [4, 16]: 32 µg/mL (≈ 61.8 µM)
MIC [5, 17]: 4 µg/mL (≈ 7.73 µM)
MIC [6, 18]: 4 µg/mL (≈ 7.73 µM)

C=C[C@]1(C)C[C@@H](OC(=O)COC(=O)/C=C/c2cccc(F)c2)[C@]2(C)[C@H](C)CC[C@]3(CCC(=O)[C@H]32)[C@@H](C)[C@@H]1O [Compound 8, (E)-2-(((3aR,4R,5R,8S,9R,12R)-8-hydroxy-4,7,9,12-tetramethyl-3-oxo-7-vinyldecahydro-4,9a-propanocyclopenta[8]annulen-5-yl)oxy)-2-oxoethyl 3-(3-fluorophenyl)acrylate]
MIC [1, 7]: > 256 µg/mL
MIC [2, 8]: > 256 µg/mL
MIC [3, 9]: 64 µg/mL (≈ 122 µM)
MIC [4, 10]: 32 µg/mL (≈ 60.8 µM)
MIC [5, 11]: 16 µg/mL (≈ 30.4 µM)
MIC [6, 12]: 32 µg/mL (≈ 60.8 µM)

C=C[C@]1(C)C[C@@H](OC(=O)COC(=O)/C=C/c2ccc(F)cc2)[C@]2(C)[C@H](C)CC[C@]3(CCC(=O)[C@H]32)[C@@H](C)[C@@H]1O [Compound 11, (E)-2-(((3aR,4R,5R,8S,9R,12R)-8-hydroxy-4,7,9,12-tetramethyl-3-oxo-7-vinyldecahydro-4,9a-propanocyclopenta[8]annulen-5-yl)oxy)-2-oxoethyl 3-(4-fluorophenyl)acrylate]
MIC [1, 7]: 128 µg/mL (≈ 243 µM)
MIC [2, 8]: 128 µg/mL (≈ 243 µM)
MIC [3, 9]: 32 µg/mL (≈ 60.8 µM)
MIC [4, 10]: 32 µg/mL (≈ 60.8 µM)
MIC [5, 11]: 16 µg/mL (≈ 30.4 µM)
MIC [6, 12]: 32 µg/mL (≈ 60.8 µM)

C=C[C@]1(C)C[C@@H](OC(=O)COC(=O)/C=C/c2ccc(C(F)(F)F)cc2)[C@]2(C)[C@H](C)CC[C@]3(CCC(=O)[C@H]32)[C@@H](C)[C@@H]1O [Compound 15, (E)-2-(((3aR,4R,5R,8S,9R,12R)-8-hydroxy-4,7,9,12-tetramethyl-3-oxo-7-vinyldecahydro-4,9a-propanocyclopenta[8]annulen-5-yl)oxy)-2-oxoethyl 3-(4-(trifluoromethyl)phenyl)acrylate]
MIC [1, 7]: > 256 µg/mL
MIC [2, 8]: 64 µg/mL (≈ 111 µM)
MIC [3, 9]: 128 µg/mL (≈ 222 µM)
MIC [4, 10]: 8 µg/mL (≈ 13.9 µM)
inhibitory effect compared with the three tested positive controls [4]: better than that of the positive controls
MIC [5, 11]: 16 µg/mL (≈ 27.7 µM)
MIC [6, 12]: 16 µg/mL (≈ 27.7 µM)

C=C[C@]1(C)C[C@@H](OC(=O)COC(=O)/C=C/c2ccc(Cn3ccnc3)cc2)[C@]2(C)[C@H](C)CC[C@]3(CCC(=O)[C@H]32)[C@@H](C)[C@@H]1O [Compound 17]
MIC [1, 7]: 128 µg/mL (≈ 217 µM)
MIC [2, 8]: 64 µg/mL (≈ 109 µM)
MIC [3, 9]: 32 µg/mL (≈ 54.4 µM)
MIC [4, 10]: 16 µg/mL (≈ 27.2 µM)
MIC [5, 11]: 8 µg/mL (≈ 13.6 µM)
MIC [6, 12]: 16 µg/mL (≈ 27.2 µM)

C=C[C@]1(C)C[C@@H](OC(=O)CSC(C)(C)CNC(=O)[C@H](N)C(C)C)[C@]2(C)[C@H](C)CC[C@]3(CCC(=O)[C@H]32)[C@@H](C)[C@@H]1O [Valnemulin, reference compound]
MIC [1, 13]: 2 µg/mL (≈ 3.54 µM)
MIC [2, 14]: 16 µg/mL (≈ 28.3 µM)
MIC [3, 15]: > 256 µg/mL
MIC [4, 16]: 64 µg/mL (≈ 113 µM)
MIC [5, 17]: 4 µg/mL (≈ 7.08 µM)
MIC [6, 18]: 2 µg/mL (≈ 3.54 µM)

C=C[C@]1(C)C[C@@H](OC(=O)COC(=O)/C=C/c2ccc3ccccc3c2)[C@]2(C)[C@H](C)CC[C@]3(CCC(=O)[C@H]32)[C@@H](C)[C@@H]1O [Compound 18, (E)-2-(((3aR,4R,5R,7S,8S,9R,9aS,12R)-8-hydroxy-4,7,9,12-tetramethyl-3-oxo-7-vinyldecahydro-4,9a-propanocyclopenta[8]annulen-5-yl)oxy)-2-oxoethyl 3-(naphthalen-2-yl)acrylate]
MIC [1, 7]: 256 µg/mL (≈ 458 µM)
MIC [2, 8]: 256 µg/mL (≈ 458 µM)
MIC [3, 9]: 128 µg/mL (≈ 229 µM)
MIC [4, 10]: 32 µg/mL (≈ 57.3 µM)
MIC [5, 11]: 16 µg/mL (≈ 28.6 µM)
MIC [6, 12]: 32 µg/mL (≈ 57.3 µM)
